# According to US5968932A, “Method of inhibiting sleep apnea” (Gruenenthal GmbH, priority 1998, dated 1999):
# Experiments:
# [1] = test system: standard English bulldog test model; assay: English bulldog test model of obstructive sleep apnea (hypersomnolence and sleep disordered breathing), Example 1; format: in vivo; conditions: 100 μg/kg i.v.; for Sleep disordered breathing index (SDBI): REM events per REM time/60 min; for Total sleep time (TST): eight hour observation
# Method: Five bulldogs were implanted with subcutaneous electroencephalogram (EEG) electrodes and instrumented with respiratory oscillation belts (Respitrace™) to measure abdominal and ribcage movements and with an ear oximeter to measure oxygen saturation (SaO2). […] Montirelin in a sterile saline vehicle was administered intravenously to the test animals at a dosage of 100 μg/kg. Each test with active substance was preceded by a control day in which only the saline vehicle was administered. The effect of Montirelin on hypersomnolence and sleep disordered breathing was assessed.
# Hypersomnolence was determined by sleep latency and total sleep time. Total sleep time (TST) is expressed as a percentage calculated by dividing the total sleep time in minutes by the total study time in minutes and multiplying the resulting quotient by 100 according to the formula: [formula]
# Sleep latency was defined as the total minutes until the onset of non-REM sleep.
# Sleep disordered breathing was evaluated in terms of a sleep disordered breathing index (SDBI) defined as the total number of rapid eye movement (REM) events divided by a quantity equal to the total REM time divided by 60 minutes according to the formula: [formula] A REM event (apnea) is defined as an incident of decreased or absent respiration and a decrease of 4% or more in the saturated blood oxygen (SaO2) level occurring during REM sleep.
# [2] = test system: bulldog with moderately severe obstructive sleep apnea; assay: Dose study in one bulldog with moderately severe obstructive sleep apnea, Example 2; format: in vivo; conditions: for non-REM sleep RDI (respiratory disturbance incidents): saline control 6; for Arousal index: saline control 12; for REM sleep RDI (respiratory disturbance incidents): saline control 44; for Lowest O2 saturation: saline control 89; for Mean sleep efficiency: six hours, saline control 39%
# Method: In a further experiment, Montirelin was administered on different days at varying dosage levels to one bulldog with moderately severe obstructive sleep apnea. In this bulldog, a double-blind study was conducted in which saline was administered as a control and four different doses of Montirelin (100 mg/kg, 200 mg/kg, 400 mg/kg and 800 mg/kg) were administered. The dog was studied on four different days at each dose of the active compound. […] The order of different doses of drug or saline control was randomized, and a wash-out period of two days was allowed after study of a particular dose. During the studies, respiratory movement, oxygen saturation and electroencephalogram for sleep state were measured. The number of sleep-disordered breathing events or respiratory disturbance incidents (RDI) per hour was calculated according to the formula given above both for non-rapid eye movement (non-REM) sleep, which occupies the majority of sleep time, and rapid eye movement (REM) sleep. Mean sleep efficiency and arousal index were also determined.
# Sprague-Dawley rats = assay: Subacute repeated-dose (five weeks) intravenous toxicity with four-week recovery study in rats; format: in vivo, Sprague-Dawley rats (SPF Slc:SD)
# Method: The subacute repeated-dose intravenous toxicity of Montirelin was investigated in Sprague-Dawley rats treated repeatedly at 0.05, 0.5,5 and 50 mg/kg/day for five weeks, and the reversibility of its toxic effects was also investigated by a four-week recovery study.
# […] SPF Slc:SD rats of both sexes (age: four weeks, body weight: 70.0-81.6 g) were purchased from Shizuoka Agriculture Cooperative Association for Laboratory Animals. During a one-week quarantine/acclimation period, the animals were measured for body weight and observed for any general symptoms, and healthy animals showing normal growth were selected and used in the experiment at the age of five weeks.
# Males and females were used in five groups (including the control group) of 10 animals/sex, and additional 10 animals/sex were added to the control, 0.5 mg/kg and 50 mg/kg groups to investigate the reversibility of the toxic effect of the test substance. All these animals were randomized to each group by weight stratification so that the differences in initial mean body weight were within 2% between groups. At the start of the treatment, the body weight was 116.5-132.9 g for males and 107.0-123.4 g for females.
# The maximal dose was set at […] lower doses were set at 5, 0.5 and 0.05 mg/kg using a common ratio of 1/10. This study also included the vehicle control group.
# Dosing solutions were prepared by dissolving a weighed amount of the test substance in physiological saline at a concentration of 1 W/V % using a volumetric flask. Lower dosing solutions were obtained by successive 10-fold dilution of the initial solution. The respective dosing solution was repeatedly administered intravenously once daily for 35 days into the tail vein at a rate of 0.2 ml/10 sec. using a 1/4 syringe for injection. The treatment was given at a constant volume of 0.5 ml/100 g body weight in all dose groups, and the control group was treated with physiological saline at the same volume in the same manner.
# Clinical signs in all animals were observed daily between two and four hours after dosing according to Irwin's method of comprehensive observational assessment, and the type, severity, onset time and disappearance time of toxic symptoms were recorded. During the recovery period, the clinical observation was performed once daily in the morning in the same manner. The body weight, food consumption and water consumption were measured in all animals three times weekly in the morning throughout the treatment and recovery periods and recorded.
compound,measurement,setting,value
"C[C@H]1SC[C@@H](C(=O)N[C@@H](Cc2c[nH]cn2)C(=O)N2CCC[C@H]2C(N)=O)NC1=O.O.O.O.O [Montirelin, (3R, 6R) -N-[(6-methyl-5-oxo-3-thiomorpholinyl)carbonyl]-L-histidyl-L-prolinamide tetrahydrate]","Awakening / sleep pattern, result in words",[1]; versus saline control,awaken less frequently and thus exhibit markedly better consolidated sleep patterns
same,Reduction in sleep disordered breathing,[1]; versus saline control,approximately 50%
same,"Sleep depth, result in words",[1]; versus saline control,sleep may be somewhat shallower
same,"Total sleep time, result in words",[1]; versus saline control,only a slight reduction in total sleep time
same,"Sleep disordered breathing index (SDBI), average","[1]; Average of 5 dogs, saline control 15.9 ± 11",8.7 ± 10
same,"Total sleep time (TST), average","[1]; Average of 5 dogs, saline control 20.9 ± 8.3",16.4 ± 8.5%
same,"Sleep latency, average","[1]; Average of 5 dogs, saline control 91.4 ± 14",142 ± 61.4 min
same,Sleep latency (minutes until onset of non-REM sleep),[1]; Test dog 1,47 min
same,Sleep disordered breathing index (SDBI),[1]; Test dog 1,7.2
same,Total sleep time (TST),[1]; Test dog 1,18.5%
same,Sleep latency (minutes until onset of non-REM sleep),[1]; Test dog 2,149 min
same,Sleep disordered breathing index (SDBI),[1]; Test dog 2,8.2
same,Total sleep time (TST),[1]; Test dog 2,17.0%
same,Sleep latency (minutes until onset of non-REM sleep),[1]; Test dog 3,145 min
same,Sleep disordered breathing index (SDBI),[1]; Test dog 3,2.6
same,Total sleep time (TST),[1]; Test dog 3,26.7%
same,Sleep latency (minutes until onset of non-REM sleep),[1]; Test dog 4,150 min
same,Sleep disordered breathing index (SDBI),[1]; Test dog 4,0.0
same,Total sleep time (TST),[1]; Test dog 4,17.0%
same,Sleep latency (minutes until onset of non-REM sleep),[1]; Test dog 5,219 min
same,Sleep disordered breathing index (SDBI),[1]; Test dog 5,25.7
same,Total sleep time (TST),[1]; Test dog 5,3.0%
same,non-REM sleep RDI (respiratory disturbance incidents),[2]; 100 mg/kg i.v.,8 per hour
same,Arousal index,[2]; 100 mg/kg i.v.,16
same,REM sleep RDI (respiratory disturbance incidents),[2]; 100 mg/kg i.v.,53 per hour
same,Lowest O2 saturation,[2]; 100 mg/kg i.v.,92
same,Mean sleep efficiency,[2]; 100 mg/kg i.v.,41%
same,"non-REM sleep-disordered breathing events, result in words","[2]; 200 mg/kg and above, i.v.",significant reduction in non-REM sleep-disordered breathing events
same,non-REM sleep RDI (respiratory disturbance incidents),"[2]; 200 mg/kg i.v., p < 0.05",0 per hour
same,Arousal index,[2]; 200 mg/kg i.v.,7
same,REM sleep RDI (respiratory disturbance incidents),[2]; 200 mg/kg i.v.,70 per hour
same,Lowest O2 saturation,[2]; 200 mg/kg i.v.,86
same,Mean sleep efficiency,[2]; 200 mg/kg i.v.,37%
same,"REM sleep occurrence, result in words","[2]; 400 mg/kg and 800 mg/kg, i.v.",the animal did not enter REM sleep
same,non-REM sleep RDI (respiratory disturbance incidents),[2]; 400 mg/kg i.v.,4 per hour
same,Arousal index,[2]; 400 mg/kg i.v.,12
same,Lowest O2 saturation,[2]; 400 mg/kg i.v.,92
same,Mean sleep efficiency,[2]; 400 mg/kg i.v.,40%
same,non-REM sleep RDI (respiratory disturbance incidents),"[2]; 800 mg/kg i.v., p < 0.05",2 per hour
same,Arousal index,"[2]; 800 mg/kg i.v., p < 0.05",6
same,Lowest O2 saturation,[2]; 800 mg/kg i.v.,93
same,Mean sleep efficiency,[2]; 800 mg/kg i.v.,38%
same,"Dose dependence of non-REM breathing-decline episodes, result in words",[2]; 100 to 800 mg/kg i.v.,dose-dependent reduction in the number of episodes where breathing declines during non-REM sleep
same,"Number of arousals per hour, result in words","[2]; i.v., versus saline",did reduce the number of arousals per hour
same,"Oxyhemoglobin saturation during breathing episodes, result in words","[2]; i.v., versus saline",no effect on oxyhemoglobin saturation during breathing episodes
same,"Sleep efficiency, result in words","[2]; i.v., versus saline",did not affect sleep efficiency
same,"REM sleep RDI, result in words","[2]; lower dose levels, i.v.",there does not appear to have been an impact on REM sleep RDI
same,Water consumption,"Sprague-Dawley rats; 5 mg/kg/day or above i.v., from day 2-3 until about week 4",increased in both sexes
same,Day by which polyuria disappeared,Sprague-Dawley rats; 5 mg/kg/day or higher i.v.,4 to 28 days
same,Time of polyuria peak,"Sprague-Dawley rats; 5 mg/kg/day or higher i.v., from day 0-3",peaked at about one hour after dosing
same,Transient polyuria,"Sprague-Dawley rats; 5 mg/kg/day or higher i.v., males and females",almost all males and females showed transient polyuria
same,Mortality,"Sprague-Dawley rats; 0.05, 0.5, 5 and 50 mg/kg/day i.v., administration and recovery periods",no death occurred
same,Hematological changes relative to normal range,"Sprague-Dawley rats; 50 mg/kg/day i.v., both sexes",within the range of normal physiological variations
same,"Red blood cell count, hemoglobin and hematocrit","Sprague-Dawley rats; 50 mg/kg/day i.v., both sexes","increasing tendency in red blood cell count, hemoglobin and hematocrit"
same,Total white blood cell count,"Sprague-Dawley rats; 50 mg/kg/day i.v., both sexes",decreasing tendency in total white blood cell count
same,Systemic tremor,"Sprague-Dawley rats; 50 mg/kg/day i.v., both sexes, from day 0",systemic tremor was observed transiently during the injection in both sexes
same,Day by which systemic tremor disappeared,"Sprague-Dawley rats; 50 mg/kg/day i.v., females",≤ 4 days
same,Day by which systemic tremor disappeared,"Sprague-Dawley rats; 50 mg/kg/day i.v., males",≤ 6 days
same,Reversibility of observed changes,"Sprague-Dawley rats; after discontinuing administration, four-week recovery",All observed changes were reversed by discontinuing administration
same,Incidence of hypertrophy of serous cells in the submaxillary gland (histopathology),"Sprague-Dawley rats; both sexes, all treatment groups, i.v.",showed dose-dependency in both sexes of all treatment groups
same,Food consumption and body weight changes,"Sprague-Dawley rats; females, i.v.",unremarkable
same,Blood biochemical parameters,Sprague-Dawley rats; i.v.,No treatment-related abnormalities were observed
same,Gross changes at autopsy,Sprague-Dawley rats; i.v.,no treatment-related grossly abnormal changes
same,Histopathology of other organs (light microscopy),Sprague-Dawley rats; i.v.,no remarkable changes were shown at the light microscopic level
same,Liver and kidney electron microscopical examination,Sprague-Dawley rats; i.v.,nor were there any abnormal changes in the liver or kidney
same,Other hematological parameters,Sprague-Dawley rats; i.v.,not related to the dose
same,Urinary findings (other than urine volume),Sprague-Dawley rats; i.v.,unremarkable
same,Other clinical signs,"Sprague-Dawley rats; i.v., administration and recovery periods",no other remarkable clinical signs
same,Urine volume,"Sprague-Dawley rats; males and females, 5 mg/kg/day or above i.v., week 2 and 5",increase in urine volume
same,Body weight gain,"Sprague-Dawley rats; males, particularly 0.5, 5 and 50 mg/kg/day i.v.",body weight gain was suppressed in males
same,Food consumption,"Sprague-Dawley rats; treated males, versus control males, i.v.",tended to decrease food consumption
